Data from patent US20260327239A1, “COMPOUNDS FOR COVALENT INHIBITION OF SHP2” (Purdue Research Foundation, priority 2023, published 2026).

Target: T1, SHP2 (residues 224-528) (Homo sapiens, UniProt Q06124)
T1 construct: 4× solution of SHP2 (residues 224-528)
T1 sequence (Q06124 224-528): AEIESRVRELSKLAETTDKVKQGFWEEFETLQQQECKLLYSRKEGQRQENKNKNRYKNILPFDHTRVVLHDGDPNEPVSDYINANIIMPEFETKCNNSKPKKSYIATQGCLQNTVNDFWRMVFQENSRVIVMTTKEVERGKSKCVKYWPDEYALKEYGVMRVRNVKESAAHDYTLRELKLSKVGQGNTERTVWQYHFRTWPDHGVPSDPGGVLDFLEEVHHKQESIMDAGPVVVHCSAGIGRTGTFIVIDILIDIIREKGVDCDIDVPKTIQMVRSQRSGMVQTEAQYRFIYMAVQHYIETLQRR
Test: Kinetic characterization of SHP2 inactivation (pNPP cleavage progress curves, kobs, kinact/KI)
Type: biochemical
Conditions: pH 7, role: inhibitor; substrate pNPP 3 mM, 100 nM SHP2, pH 7.0, 25° C; read-out: kinact/KI (converted)
Excerpt: Covalent inhibitors work by forming a covalent bond with a reactive functional group in the target enzyme. Consequently, the kinetics for enzyme inactivation by a covalent inhibitor is not an equilibrium process as with reversible inhibition. The potency of a reversible inhibitor can be measured by its IC50 value. Unlike reversible inhibitors, where inhibition is only concentration-dependent, covalent inhibitors show both time- and concentration-dependent target inhibition (a covalent bond formation is a time-dependent event). If sufficient time is available, covalent inhibitors can completely neutralize the target, rather than go to equilibrium. As a result, the potency and selectivity of a covalent inhibitor cannot be determined by IC50 values; instead, the rate of inactivation of the target (kinact) and the inhibition constant (KI) were determined. The bimolecular rate constant (kinact/KI), was chosen to rank the potency of covalent inhibitors (Ruddraraju et al., 2017, Molecular Biosystems 13(7), 1257-1279).
PTPs catalyze the dephosphorylation of tyrosine-phosphorylated protein substrates through a conserved mechanism that relies on a catalytic cysteine residue (Zhang, Z.-Y et al., 2003, Prog. Nucleic Acid Research Molecular Biology, 73, 171-220). This provides a mechanistic rationale for the assessment of electrophilic Michael acceptors, such as those synthesized in the present disclosure as potential covalent inhibitors of the SHP2. The enzymatic cleavage of para-nitrophenyl phosphate by SHP2 was measured over time in the presence of 100 μM inhibitor or DMSO, to determine the observed first-order rate constant (kobs). Based on kobs values, compounds were further evaluated in a dose-dependent manner to determine the second-order rate constant (kinact/KI) indicating the overall efficacy of the compounds, which was used to assess the structure-activity relationship (SAR) for the analogs of interest and design additional analogs (see Table 1). […] It has been known that modifications to the electronegativity of substituents proximal to electrophilic centers alter the reactivity of the electrophile.
The efficacy of covalent inhibitors can be broken down into the initial reversible binding of the compounds (KI), and the rate of covalent bond formation and enzyme inactivation (kinact). These two constants can be used individually, or as a ratio to determine the overall efficacy of the inhibitor's efficacy. To investigate the contribution to reversible binding compound (34) was evaluated, which lacks the carbonyl of the Michael acceptor to prevent the formation of a covalent adduct.
Inhibitors were evaluated for their ability to inhibit the reaction catalyzed by SHP2 using para-nitrophenyl phosphate (pNPP) as a substrate at pH 7 and 25° C. A 2× solution of inhibitor was diluted into DMG buffer (50 mM 3,3-dimethylglutarate pH 7.0, 1 mM EDTA, ionic strength adjusted to 150 mM using NaCl) was added to a clear flat-bottom 96-well plate (Corning Costar Assay Plate #9017), and serially diluted 1.5-fold, resulting in 100 μL volumes of varying inhibitor concentrations. To this was added a 4× solution of pNPP (12 mM) in DMG buffer. The reaction was initialized by the addition of a 4× solution of SHP2 (residues 224-528), resulting in a final solution of: inhibitor (100-0 μM), pNPP (3 mM), and SHP2 (100 nM). The plate was then monitored for a change in absorbance ab […] using a CLARIOstar^Plus plate reader (BMG Labetch) over the course of an hour. The resulting progress curves for each inhibitor were imported into Graphpad Prism 9 (GraphPad Software, San Diego, CA (USA)), and a baseline correction analysis was completed for fitting purposes. Each curve was fit to the equation Y=V0×(1−e^−kobs*t)/kobs.^[17.22] The kobs values were then plotted against inhibitor concentrations. If the resulting graph was linear, the kinact/KI value was determined by the slope of that line and the 95% confidence interval (95% CI). […]

C=C1C(=O)[C@@]2(C(=O)N3CCN(c4ccc(I)cc4)CC3)CC(=O)C[C@@H]1C2 [Compound 37]
kinact/KI: 396 M⁻¹ s⁻¹
